Results taken from PubChem BioAssay AID1963962 (Molecular Pharmacology Branch, DTP, NCI, 2024).

Test system: 967376-340-R-J2-PDC multicell spheroid viability
Assay: Anticancer human tumor 967376-340-R-J2-PDC patient-derived colon adenocarcinoma cell line growth inhibition [PI3K]
Conditions: for IC50: curve of first compound; for viability, T/C: stronger effect = lower value
Procedure, shortened: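 Three cell types, namely tumor cells, endothelial cells and mesenchymal stem cells, formed each spheroid. Combinations with four PI3K inhibitors were screened at clinically achievable concentrations decreasing by half-log, and spheroid viability was recorded.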

[1] = second compound 0.0316 µM, first compound 0.0316 µM
[2] = second compound 0.0316 µM, first compound 0.1 µM
[3] = second compound 0.0316 µM, first compound 0.316 µM
[4] = second compound 0.0316 µM, first compound 1 µM
[5] = second compound 0.0316 µM, first compound 3.16 µM
[6] = second compound 0.0316 µM, first compound 10 µM
[7] = second compound 0.1 µM, first compound 0.0316 µM
[8] = second compound 0.1 µM, first compound 0.1 µM
[9] = second compound 0.1 µM, first compound 0.316 µM
[10] = second compound 0.1 µM, first compound 1 µM
[11] = second compound 0.1 µM, first compound 3.16 µM
[12] = second compound 0.1 µM, first compound 10 µM
[13] = second compound 0.316 µM, first compound 0.0316 µM
[14] = second compound 0.316 µM, first compound 0.1 µM
[15] = second compound 0.316 µM, first compound 0.316 µM
[16] = second compound 0.316 µM, first compound 1 µM
[17] = second compound 0.316 µM, first compound 3.16 µM
[18] = second compound 0.316 µM, first compound 10 µM
[19] = second compound 1 µM, first compound 0.0316 µM
[20] = second compound 1 µM, first compound 0.1 µM
[21] = second compound 1 µM, first compound 0.316 µM
[22] = second compound 1 µM, first compound 1 µM
[23] = second compound 1 µM, first compound 3.16 µM
[24] = second compound 1 µM, first compound 10 µM
[25] = second compound 3.16 µM, first compound 0.0316 µM
[26] = second compound 3.16 µM, first compound 0.1 µM
[27] = second compound 3.16 µM, first compound 0.316 µM
[28] = second compound 3.16 µM, first compound 1 µM
[29] = second compound 3.16 µM, first compound 3.16 µM
[30] = second compound 3.16 µM, first compound 10 µM
[31] = second compound 10 µM, first compound 0.0316 µM
[32] = second compound 10 µM, first compound 0.1 µM
[33] = second compound 10 µM, first compound 0.316 µM
[34] = second compound 10 µM, first compound 1 µM
[35] = second compound 10 µM, first compound 3.16 µM
[36] = second compound 10 µM, first compound 10 µM
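Also: spheroids exposed to agents for 7 days before read-out.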
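For viability, T/C in this document: luminescence used as surrogate of cell viability.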

C#Cc1c(F)ccc2cc(O)cc(-c3ncc4c(N5CC6CCC(C5)N6)nc(OCC56CCCN5CC(F)C6)nc4c3F)c12 (stereo unspecified) + Cc1nc(NC(=O)N2CCCC2C(N)=O)sc1-c1ccnc(C(C)(C)C(F)(F)F)c1
IC50 (second compound 0.0316 µM): > 10 µM
IC50 (second compound 0.1 µM): > 10 µM
IC50 (second compound 0.316 µM): 9.86 µM
IC50 (second compound 1 µM): 5.16 µM
IC50 (second compound 3.16 µM): 3.53 µM
IC50 (second compound 10 µM): < 0.0316 µM
viability, T/C [1]: 104%
viability, T/C [2]: 85.6%
viability, T/C [3]: 81.8%
viability, T/C [4]: 82.7%
viability, T/C [5]: 80.7%
viability, T/C [6]: 68%
viability, T/C [7]: 103%
viability, T/C [8]: 81.7%
viability, T/C [9]: 82.3%
viability, T/C [10]: 70.4%
viability, T/C [11]: 80.8%
viability, T/C [12]: 69.6%
viability, T/C [13]: 64.3%
viability, T/C [14]: 90%
viability, T/C [15]: 74.5%
viability, T/C [16]: 69.8%
viability, T/C [17]: 78.5%
viability, T/C [18]: 49.8%
viability, T/C [19]: 65.1%
viability, T/C [20]: 68.3%
viability, T/C [21]: 72.5%
viability, T/C [22]: 66.8%
viability, T/C [23]: 60.3%
viability, T/C [24]: 35.5%
viability, T/C [25]: 47.6%
viability, T/C [26]: 75.2%
viability, T/C [27]: 59%
viability, T/C [28]: 59.5%
viability, T/C [29]: 49.3%
viability, T/C [30]: 34.9%
viability, T/C [31]: 47.2%
viability, T/C [32]: 41.7%
viability, T/C [33]: 51.5%
viability, T/C [34]: 37.3%
viability, T/C [35]: 36.1%
viability, T/C [36]: 16.9%

C=CC(=O)N1CCN(c2nc(=O)n(-c3c(C)ccnc3C(C)C)c3nc(-c4c(O)cccc4F)c(F)cc23)C(C)C1 (stereo unspecified) + Cc1nc(NC(=O)N2CCCC2C(N)=O)sc1-c1ccnc(C(C)(C)C(F)(F)F)c1
IC50 (second compound 0.0316 µM): > 10 µM
IC50 (second compound 0.1 µM): > 10 µM
IC50 (second compound 0.316 µM): > 10 µM
IC50 (second compound 1 µM): > 10 µM
IC50 (second compound 3.16 µM): > 10 µM
IC50 (second compound 10 µM): < 0.0316 µM
viability, T/C [1]: 85.5%
viability, T/C [2]: 85.2%
viability, T/C [3]: 86.6%
viability, T/C [4]: 84.6%
viability, T/C [5]: 91.7%
viability, T/C [6]: 102%
viability, T/C [7]: 91.9%
viability, T/C [8]: 85.8%
viability, T/C [9]: 75.6%
viability, T/C [10]: 84.6%
viability, T/C [11]: 100%
viability, T/C [12]: 74%
viability, T/C [13]: 73.3%
viability, T/C [14]: 74.5%
viability, T/C [15]: 62.5%
viability, T/C [16]: 94%
viability, T/C [17]: 91.3%
viability, T/C [18]: 69.8%
viability, T/C [19]: 65.5%
viability, T/C [20]: 65.7%
viability, T/C [21]: 57.3%
viability, T/C [22]: 66.6%
viability, T/C [23]: 66.1%
viability, T/C [24]: 76.5%
viability, T/C [25]: 61%
viability, T/C [26]: 52.9%
viability, T/C [27]: 64.4%
viability, T/C [28]: 56.8%
viability, T/C [29]: 77.7%
viability, T/C [30]: 53.3%
viability, T/C [31]: 46.9%
viability, T/C [32]: 44.7%
viability, T/C [33]: 44.9%
viability, T/C [34]: 56.3%
viability, T/C [35]: 48.7%
viability, T/C [36]: 42%

CC(Cn1ccc(-c2ccc(C#N)c(Cl)c2)n1)NC(=O)c1cc(C(C)O)[nH]n1 (stereo unspecified) + Cc1nc(NC(=O)N2CCCC2C(N)=O)sc1-c1ccnc(C(C)(C)C(F)(F)F)c1
IC50 (second compound 0.0316 µM): > 10 µM
IC50 (second compound 0.1 µM): > 10 µM
IC50 (second compound 0.316 µM): > 10 µM
IC50 (second compound 1 µM): > 10 µM
IC50 (second compound 3.16 µM): > 10 µM
IC50 (second compound 10 µM): > 10 µM
viability, T/C [1]: 90.6%
viability, T/C [2]: 118%
viability, T/C [3]: 104%
viability, T/C [4]: 93.9%
viability, T/C [5]: 109%
viability, T/C [6]: 102%
viability, T/C [7]: 95.1%
viability, T/C [8]: 103%
viability, T/C [9]: 91.6%
viability, T/C [10]: 100%
viability, T/C [11]: 92.9%
viability, T/C [12]: 119%
viability, T/C [13]: 69.3%
viability, T/C [14]: 94.3%
viability, T/C [15]: 95%
viability, T/C [16]: 92.7%
viability, T/C [17]: 102%
viability, T/C [18]: 73.8%
viability, T/C [19]: 58%
viability, T/C [20]: 66.8%
viability, T/C [21]: 75.2%
viability, T/C [22]: 72.5%
viability, T/C [23]: 83.5%
viability, T/C [24]: 65.7%
viability, T/C [25]: 54.4%
viability, T/C [26]: 62.3%
viability, T/C [27]: 61.5%
viability, T/C [28]: 52.5%
viability, T/C [29]: 62.9%
viability, T/C [30]: 73.7%
viability, T/C [31]: 57.3%
viability, T/C [32]: 58.4%
viability, T/C [33]: 43.3%
viability, T/C [34]: 60.9%
viability, T/C [35]: 72.1%
viability, T/C [36]: 48.2%
